Values after ≈ are worked out from the molar mass of the structure shown. Read-outs that look alike come from different tables or passages of the source.
Key:
S. aureus (Gram +ve) = experiment: Antibacterial activity, broth microdilution; format: cell-based; settings: Staphylococcus aureus
E. coli (Gram −ve) = experiment: Antibacterial activity, broth microdilution; format: cell-based; settings: Escherichia coli
MtDHFR = MtDHFR (Mycobacterium tuberculosis, UniProt P9WNX1); experiment: biochemical; format: biochemical; settings: for MtDHFR inhibitory activity (in words): in vitro assay
M. tuberculosis H37Rv = experiment: Antitubercular activity, Microplate Alamar Blue assay (MABA); format: cell-based; settings: Mycobacterium tuberculosis, average of triplicate tests
MTT-based cytotoxicity [1] = format: cell-based, human; settings: human; MTT assay, A549 lung adenocarcinoma, means ± SEM of three independent experiments
Experimental: (§1) Cellular conversion of MTT (3-(4,5-dimethylthiazo-2-yl)-2,5-diphenyl-tetrazolium bromide) into a formazan product was performed to evaluate the cytotoxic activity (IC50) of some of the compounds against A549 (lung adenocarcinoma) MV cell lines up to a concentration of […] using a Promega Cell Titer 96 non-radioactive cell proliferation assay with cisplatin as the positive control. The IC50 values given in Table 6 are the averages ± SEM of three independent measurements.

[2] = molecular target: InhA (enoyl ACP reductase) (Mycobacterium tuberculosis, UniProt P9WGR1); experiment: Enoyl ACP reductase (InhA) inhibition; format: biochemical; settings: for enoyl ACP reductase inhibitory activity (in words): in vitro assay
MTT-based cytotoxicity [3] = format: cell-based; settings: African green monkey; MTT assay, Mammalian Vero cell lines, means ± SEM of three independent experiments; read-out: IC50 MV Cell Lines (cytotoxicity)
Experimental: as §1

[4] = system: A549 (lung adenocarcinoma) cell lines; experiment: MTT-based cytotoxicity; format: cell-based, human
Experimental: as §1

[5] = system: Mammalian Vero cell lines (MV cell lines); experiment: MTT-based cytotoxicity; format: cell-based
Experimental: as §1

Chain of MtDHFR (P9WNX1 whole entry): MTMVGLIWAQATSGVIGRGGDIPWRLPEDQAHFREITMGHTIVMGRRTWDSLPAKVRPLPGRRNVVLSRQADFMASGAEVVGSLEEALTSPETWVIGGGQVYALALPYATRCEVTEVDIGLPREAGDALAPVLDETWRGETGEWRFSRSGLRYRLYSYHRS
Chain of InhA (enoyl ACP reductase) (P9WGR1 whole entry, looked up): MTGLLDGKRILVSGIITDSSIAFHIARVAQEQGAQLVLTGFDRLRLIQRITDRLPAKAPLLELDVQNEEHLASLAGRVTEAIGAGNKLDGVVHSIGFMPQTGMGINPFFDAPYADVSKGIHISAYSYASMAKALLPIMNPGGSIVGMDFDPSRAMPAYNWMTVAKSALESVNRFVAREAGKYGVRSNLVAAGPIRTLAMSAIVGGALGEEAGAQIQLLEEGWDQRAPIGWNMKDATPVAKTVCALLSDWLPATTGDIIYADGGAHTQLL

O=C(O)c1cn(C2CC2)c2cc(N3CCNCC3)c(F)cc2c1=O [Ciprofloxacin, reference compound]
MIC (S. aureus (Gram +ve)): 2 µg/mL (≈ 6.04 µM) | MIC (E. coli (Gram −ve)): 2 µg/mL (≈ 6.04 µM)

Cc1ccc(C)n1-c1ccc(C(=O)NNC(=O)Cc2ccccc2)cc1 [Compound 5a, 4-(2,5-Dimethyl-1H-pyrrol-1-yl)-N′-(2-phenylacetyl)benzohydrazide]
MIC (S. aureus (Gram +ve)): 50 µg/mL (≈ 144 µM) | IC50 (MtDHFR): 146 µM | MIC (M. tuberculosis H37Rv): 25 µg/mL (≈ 72 µM) | MIC (E. coli (Gram −ve)): 50 µg/mL (≈ 144 µM)

Cc1ccccc1CC(=O)NNC(=O)c1ccc(-n2c(C)ccc2C)cc1 [Compound 5b, 4-(2,5-Dimethyl-1H-pyrrol-1-yl)-N′-(2-(o-tolyl)acetyl)benzohydrazide]
MIC (S. aureus (Gram +ve)): 0.8 µg/mL (≈ 2.21 µM) | IC50 (MtDHFR): 125 µM | MIC (M. tuberculosis H37Rv): 25 µg/mL (≈ 69.2 µM) | MIC (E. coli (Gram −ve)): 50 µg/mL (≈ 138 µM)

Cc1ccc(CC(=O)NNC(=O)c2ccc(-n3c(C)ccc3C)cc2)cc1 [Compound 5c, 4-(2,5-Dimethyl-1H-pyrrol-1-yl)-N′-(2-(p-tolyl)acetyl)benzohydrazide]
MIC (S. aureus (Gram +ve)): 3.12 µg/mL (≈ 8.63 µM) | IC50 (MTT-based cytotoxicity [1]): 219 ± 0.7 µM | IC50 (MtDHFR): 118 µM | inhibition at 50 µM [2]: 20% | MIC (M. tuberculosis H37Rv): 25 µg/mL (≈ 69.2 µM) | IC50 (MTT-based cytotoxicity [3]): 221 ± 0.8 µM | MIC (E. coli (Gram −ve)): 50 µg/mL (≈ 138 µM)

COc1ccc(CC(=O)NNC(=O)c2ccc(-n3c(C)ccc3C)cc2)cc1 [Compound 5d, 4-(2,5-Dimethyl-1H-pyrrol-1-yl)-N′-(2-(4-methoxyphenyl)acetyl)benzohydrazide]
MIC (S. aureus (Gram +ve)): 3.12 µg/mL (≈ 8.27 µM) | IC50 (MTT-based cytotoxicity [1]): 214 ± 0.2 µM | IC50 (MtDHFR): 85 µM | inhibition at 50 µM [2]: 32% | MIC (M. tuberculosis H37Rv): 3.25 µg/mL (≈ 8.61 µM) | IC50 (MTT-based cytotoxicity [3]): 214 ± 0.6 µM | MIC (E. coli (Gram −ve)): 100 µg/mL (≈ 265 µM)

COc1ccccc1CC(=O)NNC(=O)c1ccc(-n2c(C)ccc2C)cc1 [Compound 5e, 4-(2,5-Dimethyl-1H-pyrrol-1-yl)-N′-(2-(2-methoxyphenyl)acetyl)benzohydrazide]
MIC (S. aureus (Gram +ve)): 6.25 µg/mL (≈ 16.6 µM) | IC50 (MtDHFR): 78 µM | MIC (M. tuberculosis H37Rv): 6.25 µg/mL (≈ 16.6 µM) | MIC (E. coli (Gram −ve)): 100 µg/mL (≈ 265 µM)

Cc1ccc(C)n1-c1ccc(C(=O)NNC(=O)Cc2ccc(Cl)cc2)cc1 [Compound 5f, N′-(2-(4-Chlorophenyl)acetyl)-4-(2,5-dimethyl-1H-pyrrol-1-yl)benzohydrazide]
MIC (S. aureus (Gram +ve)): 1.6 µg/mL (≈ 4.19 µM) | IC50 (MTT-based cytotoxicity [1]): 216 ± 0.5 µM | IC50 (MtDHFR): 25 µM | MtDHFR inhibitory activity (in words) (MtDHFR): promising enzyme inhibitory activity | inhibition at 50 µM [2]: 76% | enoyl ACP reductase inhibitory activity (in words) [2]: promising enzyme inhibitory activity | MIC (M. tuberculosis H37Rv): 1.6 µg/mL (≈ 4.19 µM) | IC50 (MTT-based cytotoxicity [3]): 215 ± 0.2 µM | MIC (E. coli (Gram −ve)): 50 µg/mL (≈ 131 µM)

Cc1ccc(C)n1-c1ccc(C(=O)NNC(=O)Cc2ccccc2Cl)cc1 [Compound 5g, N′-(2-(2-Chlorophenyl)acetyl)-4-(2,5-dimethyl-1H-pyrrol-1-yl)benzohydrazide]
MIC (S. aureus (Gram +ve)): 3.12 µg/mL (≈ 8.17 µM) | IC50 (MtDHFR): 26 µM | MIC (M. tuberculosis H37Rv): 3.25 µg/mL (≈ 8.51 µM) | MIC (E. coli (Gram −ve)): 50 µg/mL (≈ 131 µM)

Cc1ccc(C)n1-c1ccc(C(=O)NNC(=O)Cc2cccc(Cl)c2)cc1 [Compound 5h, N′-(2-(3-Chlorophenyl)acetyl)-4-(2,5-dimethyl-1H-pyrrol-1-yl)benzohydrazide]
MIC (S. aureus (Gram +ve)): 6.25 µg/mL (≈ 16.4 µM) | IC50 (MtDHFR): 30 µM | MIC (M. tuberculosis H37Rv): 3.25 µg/mL (≈ 8.51 µM) | MIC (E. coli (Gram −ve)): 50 µg/mL (≈ 131 µM)

Cc1ccc(C)n1-c1ccc(C(=O)NNC(=O)Cc2ccc(Br)cc2)cc1 [Compound 5i, N′-(2-(4-Bromophenyl)acetyl)-4-(2,5-dimethyl-1H-pyrrol-1-yl)benzohydrazide]
MIC (S. aureus (Gram +ve)): 6.25 µg/mL (≈ 14.7 µM) | IC50 (MTT-based cytotoxicity [1]): 214 ± 0.4 µM | IC50 (MtDHFR): 18 µM | MtDHFR inhibitory activity (in words) (MtDHFR): promising enzyme inhibitory activity | inhibition at 50 µM [2]: 72% | enoyl ACP reductase inhibitory activity (in words) [2]: promising enzyme inhibitory activity | MIC (M. tuberculosis H37Rv): 1.6 µg/mL (≈ 3.75 µM) | IC50 (MTT-based cytotoxicity [3]): 218 ± 0.3 µM | MIC (E. coli (Gram −ve)): 50 µg/mL (≈ 117 µM)

Cc1ccc(C)n1-c1ccc(C(=O)NNC(=O)Cc2ccccc2Br)cc1 [Compound 5j, N′-(2-(2-Bromophenyl)acetyl)-4-(2,5-dimethyl-1H-pyrrol-1-yl)benzohydrazide]
MIC (S. aureus (Gram +ve)): 6.25 µg/mL (≈ 14.7 µM) | IC50 (MtDHFR): 15 µM | MIC (M. tuberculosis H37Rv): 1.6 µg/mL (≈ 3.75 µM) | MIC (E. coli (Gram −ve)): 50 µg/mL (≈ 117 µM)

Cc1ccc(C)n1-c1ccc(C(=O)NNC(=O)Cc2ccc(F)cc2)cc1 [Compound 5k, 4-(2,5-Dimethyl-1H-pyrrol-1-yl)-N′-(2-(4-flurophenyl)acetyl)benzohydrazide]
MIC (S. aureus (Gram +ve)): 1.6 µg/mL (≈ 4.38 µM) | IC50 (MTT-based cytotoxicity [1]): 219 ± 0.4 µM | IC50 (MtDHFR): 10 µM | MtDHFR inhibitory activity (in words) (MtDHFR): promising enzyme inhibitory activity | inhibition at 50 µM [2]: 88% | enoyl ACP reductase inhibitory activity (in words) [2]: promising enzyme inhibitory activity | MIC (M. tuberculosis H37Rv): 0.8 µg/mL (≈ 2.19 µM) | IC50 (MTT-based cytotoxicity [3]): 221 ± 0.3 µM | MIC (E. coli (Gram −ve)): 50 µg/mL (≈ 137 µM)

Cc1ccc(C)n1-c1ccc(C(=O)NNC(=O)Cc2ccc(O)cc2)cc1 [Compound 5l, 4-(2,5-Dimethyl-1H-pyrrol-1-yl)-N′-(2-(4-hydroxyphenyl)acetyl)benzohydrazide]
MIC (S. aureus (Gram +ve)): 6.25 µg/mL (≈ 17.2 µM) | IC50 (MtDHFR): 30 µM | MIC (M. tuberculosis H37Rv): 3.25 µg/mL (≈ 8.94 µM) | MIC (E. coli (Gram −ve)): 50 µg/mL (≈ 138 µM)

Cc1ccc(C)n1-c1ccc(C(=O)NNC(=O)Cc2cccc(Br)c2)cc1 [Compound 5m, 4-(2,5-Dimethyl-1H-pyrrol-1-yl)-N′-(2-(3-bromophenyl)acetyl)benzohydrazide]
MIC (S. aureus (Gram +ve)): 12.5 µg/mL (≈ 29.3 µM) | IC50 (MtDHFR): 18 µM | MIC (M. tuberculosis H37Rv): 3.25 µg/mL (≈ 7.62 µM) | MIC (E. coli (Gram −ve)): 50 µg/mL (≈ 117 µM)

Cc1ccc(C)n1-c1ccc(C(=O)NNC(=O)Cc2ccc([N+](=O)[O-])cc2)cc1 [Compound 5n, 4-(2,5-Dimethyl-1H-pyrrol-1-yl)-N′-(2-(4-nitrophenyl)acetyl)benzohydrazide]
MIC (S. aureus (Gram +ve)): 12.5 µg/mL (≈ 31.9 µM) | IC50 (MtDHFR): 15 µM | MIC (M. tuberculosis H37Rv): 1.6 µg/mL (≈ 4.08 µM) | MIC (E. coli (Gram −ve)): 50 µg/mL (≈ 127 µM)

NNC(=O)c1ccncc1 [INH, reference compound]
IC50 [4]: > 450 µM | IC50 [5]: > 450 µM

NC(=O)c1cnccn1 [Pyrazinamide, reference compound]
MIC (M. tuberculosis H37Rv): 3.12 µg/mL (≈ 25.4 µM)

[H]/N=C(/N)N[C@H]1[C@H](O)[C@@H](O)[C@H](O[C@@H]2O[C@@H](C)[C@](O)(C=O)[C@H]2O[C@@H]2O[C@@H](CO)[C@H](O)[C@@H](O)[C@@H]2NC)[C@@H](N/C(N)=N\[H])[C@@H]1O [Streptomycin, reference compound]
MIC (M. tuberculosis H37Rv): 6.25 µg/mL (≈ 10.7 µM)
